In ChEMBL document CHEMBL1131414, “Dual D2-receptor and beta2-adrenoceptor agonists for the treatment of airway diseases. 1. Discovery and biological evaluation of some 7-(2-aminoethyl)-4-hydroxybenzothiazol-2(3H)-one analogues” (J Med Chem, 1998):
The source made the active and inactive calls. No cut-off for these calls is given here.

Assays:
[1] = molecular target: D(2) dopamine receptor (Bos taurus) (UniProt P20288); experiment: Tested in vitro for binding activity to Dopamine receptor D2 in bovine pituitary membranes (D2-LB); assay type: cell membranes
[2] = molecular target: D(2) dopamine receptor (Homo sapiens) (UniProt P14416); experiment: Tested in vitro for binding activity to Dopamine receptor D2 in field stimulated rabbit ear artery (D2-REA); f denotes 'Data compromised by high […] agonist activity'; conditions: Oryctolagus cuniculus; target entry is the homologue from another species
[3] = molecular target: Beta-2 adrenergic receptor (Cavia porcellus) (UniProt Q8K4Z4); experiment: Tested in vitro for binding activity to Beta-2 adrenergic receptor in guinea pig trachea (GPT).; assay type: tissue-based
[4] = molecular target: Adrenergic receptor alpha-1 (Homo sapiens) (UniProt P35348+P25100+P35368); experiment: Tested in vitro for binding activity to Alpha-1 adrenergic receptor in field stimulated rabbit ear artery (REA).; conditions: Oryctolagus cuniculus; target entry is the homologue from another species
[5] = molecular target: D(2) dopamine receptor (Homo sapiens) (UniProt P14416); experiment: Tested in vitro for binding activity to Dopamine receptor D2 in field stimulated rabbit ear artery (D2-REA).; conditions: Oryctolagus cuniculus; target entry is the homologue from another species

Sequence of Beta-2 adrenergic receptor (Cavia porcellus) (Q8K4Z4 whole entry, looked up): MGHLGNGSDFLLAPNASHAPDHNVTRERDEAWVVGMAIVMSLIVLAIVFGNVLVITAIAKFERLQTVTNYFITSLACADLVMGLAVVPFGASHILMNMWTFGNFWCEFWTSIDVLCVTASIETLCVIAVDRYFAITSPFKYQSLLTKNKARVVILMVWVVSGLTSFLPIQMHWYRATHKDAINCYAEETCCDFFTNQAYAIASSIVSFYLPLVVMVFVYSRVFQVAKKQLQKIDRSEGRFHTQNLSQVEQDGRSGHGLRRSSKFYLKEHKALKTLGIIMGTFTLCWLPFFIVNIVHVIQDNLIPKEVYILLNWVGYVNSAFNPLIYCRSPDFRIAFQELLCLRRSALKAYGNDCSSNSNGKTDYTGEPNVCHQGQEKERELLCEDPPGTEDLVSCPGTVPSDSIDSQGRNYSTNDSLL
Sequence of D(2) dopamine receptor (Homo sapiens) (P14416 whole entry): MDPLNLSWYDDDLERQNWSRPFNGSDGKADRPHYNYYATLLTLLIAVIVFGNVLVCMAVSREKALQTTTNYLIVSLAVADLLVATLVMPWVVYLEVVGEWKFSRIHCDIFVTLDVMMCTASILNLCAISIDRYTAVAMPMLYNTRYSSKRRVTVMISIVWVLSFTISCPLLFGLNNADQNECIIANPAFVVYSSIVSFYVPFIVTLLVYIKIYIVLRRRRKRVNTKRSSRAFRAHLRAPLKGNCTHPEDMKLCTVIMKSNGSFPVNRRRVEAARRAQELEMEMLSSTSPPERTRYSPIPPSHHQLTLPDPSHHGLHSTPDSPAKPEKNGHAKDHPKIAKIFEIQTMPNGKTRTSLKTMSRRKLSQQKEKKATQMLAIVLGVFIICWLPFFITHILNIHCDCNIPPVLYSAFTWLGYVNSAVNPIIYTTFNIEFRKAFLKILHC
Sequence of D(2) dopamine receptor (Bos taurus) (P20288 whole entry): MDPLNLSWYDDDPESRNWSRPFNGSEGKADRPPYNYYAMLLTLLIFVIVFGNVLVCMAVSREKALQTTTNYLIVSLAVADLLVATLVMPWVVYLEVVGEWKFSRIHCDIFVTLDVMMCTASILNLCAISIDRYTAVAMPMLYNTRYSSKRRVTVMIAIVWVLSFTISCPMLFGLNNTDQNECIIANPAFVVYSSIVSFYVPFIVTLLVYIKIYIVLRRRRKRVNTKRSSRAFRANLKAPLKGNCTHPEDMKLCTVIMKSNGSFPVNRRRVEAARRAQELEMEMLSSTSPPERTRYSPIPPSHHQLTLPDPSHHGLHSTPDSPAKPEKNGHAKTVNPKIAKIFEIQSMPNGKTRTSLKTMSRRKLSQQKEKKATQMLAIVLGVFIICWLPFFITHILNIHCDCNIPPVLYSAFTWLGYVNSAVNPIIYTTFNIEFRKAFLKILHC

SMILES	pKH [1]	pKL [1]	p[A]50 [2]	p[A]50 [3]	p[A]50 [4]	p[A]50 [5]
Oc1nc2c(O)ccc(CCNCCCCCCOCCCCc3ccccc3)c2s1	9.33	7.11	inactive	7.33	6.85	
OCc1cc(C(O)CNCCCCCCOCCCCc2ccccc2)ccc1O (configuration not stated)				7.52	5.49	
O=c1[nH]c2c(O)ccc(CCNCCS(=O)(=O)CCCOCCc3ccccc3)c2s1	8.61	6.48		7.95	6.08	8.94
Oc1nc2c(O)ccc(CCNCCCCCCNCCc3ccccc3)c2s1	8.99	6.44	inactive	7.19	6.81	
CCCN(CCC)CCc1ccc(O)c2nc(O)sc12	9.34	6.85		< 5	6.03	9.6
Oc1nc2c(O)ccc(CCNCCCCCCOCCc3ccccc3)c2s1	9.01	6.93	inactive	7.89	7.56	
